According to BigSolDB 2.1:

CC1Cc2ccccc2N1NC(=O)c1ccc(Cl)c(S(N)(=O)=O)c1 (stereo not given)
solubility (mole fraction)
Conditions	in 2-butanone	in acetone	in acetonitrile	in cyclohexane	in ethanol	in ethyl acetate	in isopropanol	in methanol	in n-propanol	in toluene
278.15 K	0.0155	0.0204	0.00184	1.28e-06	0.00383	0.000455	0.0012	0.00524	0.00285	4.36e-06
283.15 K	0.0175	0.0228	0.00278	2.34e-06	0.00514	0.000769	0.00187	0.00676	0.00398	6.4e-06
288.15 K	0.0198	0.0257	0.00391	3.75e-06	0.00709	0.00115	0.00279	0.00877	0.00531	1.08e-05
293.15 K	0.0225	0.0288	0.00536	5.88e-06	0.00913	0.00165	0.00386	0.0115	0.00685	1.68e-05
298.15 K	0.0255	0.0322	0.00714	9.3e-06	0.0116	0.00235	0.00535	0.0147	0.00884	2.54e-05
303.15 K	0.0291	0.036	0.00953	1.45e-05	0.0148	0.00336	0.00732	0.0187	0.0114	3.62e-05
308.15 K	0.0329	0.0402	0.0124	2.23e-05	0.0186	0.00464	0.00979	0.023	0.0143	5.21e-05
313.15 K	0.0371	0.0445	0.0158	3.36e-05	0.0227	0.00638	0.013	0.0276	0.0177	7.52e-05
318.15 K	0.0417	0.0495	0.0199	5.02e-05	0.0275	0.00855	0.0168	0.033	0.0219	0.000106
